Assay [1] concerns the target T1, thrombin (Bos taurus, UniProt P00735). Put plainly: thrombin inhibition assay (IC50, Example 4). The note with it: footnote d: IC50. Type of assay: biochemical, bovine.
The target in a further assay is T2, FVIIa and TF complex (Homo sapiens, UniProt P08709).
T2 construct: 50 µl of 16 nM FVIIa and TF complex solution
Put plainly: Factor VII inhibition assay (IC50, Example 4). In kind it is biochemical. The settings on record: footnote d: IC50. How it is done: (§1) All inhibition assays of this experiment were performed at room temperature in 96 well microplates using a Bio-Rad microplate reader (Model 3550). […] This solution (2.05 mM) served as the stock solution for all the inhibition assays. The hydrolysis of chromogenic substrates was monitored at 405 nm. The reaction progress curves were recorded by reading the plates typically 90 times with 30 seconds to 2 minute intervals. The initial rate were determined by unweighted nonlinear least-squares fitting to a first order reaction in GraFit.
In the Factor VII assay, S-2288 (from Pharmacia), D-Ile-Pro-Arg-pNA was used at […] in deionized water as substrate. […] This dilution served as the first point of the inhibitor (20 µM). From this concentration point 6 more sequential dilutions were made with a dilution factor of 2. 50 µl of 16 nM FVIIa and TF complex solution and 40 µl of the inhibitor solutions were added into each well, the mixtures were incubated for 20 minutes before 10 µl of 20 mM S-2288 was added.

A further assay deals with T3, bovine factor Xa (Bos taurus, UniProt P00743).
T3 construct: bovine factor Xa (from Sigma); purchased Sigma
T3 sequence (P00743 41-180 limits assumed): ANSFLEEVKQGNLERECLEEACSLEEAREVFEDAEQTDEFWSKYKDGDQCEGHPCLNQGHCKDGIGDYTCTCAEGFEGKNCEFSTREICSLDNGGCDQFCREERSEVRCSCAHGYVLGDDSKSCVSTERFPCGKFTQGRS
T3 sequence (P00743 234-492 limits assumed): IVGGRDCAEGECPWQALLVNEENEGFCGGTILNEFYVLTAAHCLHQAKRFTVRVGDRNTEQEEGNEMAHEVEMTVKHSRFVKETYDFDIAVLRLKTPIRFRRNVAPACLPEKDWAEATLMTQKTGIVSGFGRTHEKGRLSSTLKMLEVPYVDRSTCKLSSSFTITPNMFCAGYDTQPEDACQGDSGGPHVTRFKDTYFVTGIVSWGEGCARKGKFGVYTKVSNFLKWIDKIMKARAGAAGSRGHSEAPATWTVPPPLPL
The assay is described as follows: Factor X inhibition assay (IC50, Example 4). The note with it: footnote d: IC50; footnote e: bovine plasma; read-out: IC50 Factor X. Type of assay: biochemical. How it is done: as §1
In the Factor X assay, buffer and substrate are the same as used for thrombin assay. A 1:100 dilution was made into pH 8.4 Tris buffer to serve as the first point. Seven dilutions with a dilution factor of 2 were made. The assay protocol is the same as for thrombin except 25 nM of bovine factor Xa (from Sigma) in pH 8.4 Tris buffer was used instead of thrombin.

The target in assay [2] is Tissue Plasminogen Activator (t-PA) (Homo sapiens, UniProt P00750). The assay is described as follows: t-PA inhibition assay (IC50, Example 4). In kind it is biochemical. The note with it: footnote d: IC50. The method, then:
as §1

For assay [3], the target named is Activated Protein C (aPC) (Homo sapiens, UniProt P04070). Put plainly: activated protein C inhibition assay (IC50, Example 4). Type of assay: biochemical. The settings on record: footnote d: IC50. The method, then:
as §1
Activated Protein C (aPC): Buffer was the same as used in thrombin assay. […] Dilutions of structure (13b) were the same as in urokinase assay.

A further assay concerns the target T4, bovine trypsin (Bos taurus, UniProt P00760).
T4 construct: purchased Sigma
The assay is described as follows: trypsin inhibition assay (IC50, Example 4). In kind it is biochemical. The settings on record: footnote d: IC50. The method, then:
as §1
In the trypsin assay, pH 7.8 Tris (0.10 M Tris and 0.02 M CaCl2) was utilized as the buffer. BAPNA (from Sigma) was used at 1 mg/ml in 1% DMSO (v/v) deionized water solution as substrate. The same dilutions of structure (13b) were made as for Factor VII assay.

In assay [4] the target is T5, urokinase (Homo sapiens, UniProt P00749). Put plainly: urokinase inhibition assay (IC50, Example 4). Type of assay: biochemical. The arrangement: purchased Sigma. The settings on record: footnote d: IC50. How it is done:
as §1
In the urokinase assay, buffer was pH 8.8 0.05 M Tris and 0.05 M NaCl in deionized water. S-2444 (from Sigma), pyroGlu-Gly-Arg-pNA at 0.5 mM in water was utilized as substrate. The same dilution procedure was used as for Factor VII and Factor X. Assay protocol is the same as for thrombin except 18.5 nM of human urokinase (from Sigma) was utilized.

Assay [5] has as its target T6, Plasmin (Bos taurus, UniProt P06868). Put plainly: plasmin inhibition assay (IC50, Example 4). Type of assay: biochemical. The arrangement: Plasmin: Buffer (see thrombin assay). The note with it: footnote d: IC50. The method, then:
as §1
For dilutions of structure (13b) (see urokinase assay).

The next assay has as its target T7, factor VII (Homo sapiens, UniProt P08709).
T7 construct: human Factor VIIa (FVIIa)
T7 sequence (P08709 61-212 limits assumed): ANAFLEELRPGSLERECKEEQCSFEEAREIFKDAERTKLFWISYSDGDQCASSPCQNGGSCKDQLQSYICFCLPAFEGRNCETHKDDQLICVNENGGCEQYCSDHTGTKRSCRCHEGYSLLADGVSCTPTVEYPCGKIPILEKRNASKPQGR
T7 sequence (P08709 213-466 limits assumed): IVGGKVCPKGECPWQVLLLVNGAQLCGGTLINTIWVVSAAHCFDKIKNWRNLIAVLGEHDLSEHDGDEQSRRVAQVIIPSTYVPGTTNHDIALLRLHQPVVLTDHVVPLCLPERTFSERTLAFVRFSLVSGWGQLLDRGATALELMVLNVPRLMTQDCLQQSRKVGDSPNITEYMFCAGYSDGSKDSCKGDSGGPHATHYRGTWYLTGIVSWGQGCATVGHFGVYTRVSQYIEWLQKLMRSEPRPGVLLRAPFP
The assay is described as follows: Factor VII inhibition assay (Ki, Example 5). Type of assay: biochemical. The note with it: read-out: Ki (M) Factor VII. The method, then:
(§2) The reaction progress curves were recorded by reading the plates, typically 60 times with 30 second to 2 minute intervals. Initial rates were determined by unweighted nonlinear least-squares fitting to a first order reaction in GraFit (Erithacus Software Limited, London, England).
From this concentration point seven more sequential dilutions were made for the assay.

The target in the next assay is t-PA (Homo sapiens, UniProt P00750). The assay is described as follows: t-PA inhibition assay (Ki, Example 5). The settings on record: tissue Plasminogen Activator; read-out: Ki (M) tPA. Type of assay: biochemical. The method, then:
as §2

A further assay addresses Factor XI (Homo sapiens, UniProt P03951). The assay is described as follows: Factor XI inhibition assay (Ki). In kind it is biochemical. The note with it: read-out: Ki (M) Factor XI.
Assay [6] addresses T5, urokinase. Put plainly: urokinase inhibition assay (Ki, Example 5). Type of assay: biochemical, human kidney. The arrangement: from tissue; host or cells: human kidney.
For assay [7], the target named is T6, Plasmin. The assay is described as follows: plasmin inhibition assay (Ki, Example 5). Set-up: Plasmin: Buffer (see thrombin assay); from tissue; host or cells: bovine plasma. The settings on record: read-out: Ki (M) Plasmin. Type of assay: biochemical, bovine plasma. How it is done:
as §2

Assay [8] has as its target T1, thrombin. Put plainly: thrombin inhibition of solid phase synthesized mimetics. In kind it is biochemical. The settings on record: assayed as mixtures of diastereomers; read-out: Ki as thrombin inhibitors (asterisk at compound number). How it is done: General Procedure: The synthesis of β-strand mimetics was initiated by deprotection of Fmoc PAL resin using 25% piperidine in DMF. Following extensive washing with DMF, the resin was treated with the acid fluoride of N-Fmoc-4-aminomethylbenzoic acid, or (81), or (86) and Hunigs' base in DMF until the Kaiser test was negative. Alternatively, the Fmoc-protected thiazole- (75) or imidazole-based (77) linkers were coupled to the resin using BOP, HOBt and DIEA. In some instances Fmoc-Leu or another amino acid was attached to the resin prior to the thiazole- (75) or imidazole-based (77) linkers via the same methodology. […] Deprotection of all Fmoc-protected linkers was effected by treatment with 25% piperidine in DMF, and deprotection the Boc-protected linker (77) was effected by TMS-Cl (1 M) and phenol (3 M) in dichloromethane for 30 min. The lysinol derivative (90) was coupled to resin-bound linkers N-Fmoc-4-aminomethylbenzoic acid, (81), or (86) using PyBOP, HOBt and Hunigs' base in DMF until a negative Kaiser test was achieved. Treatment of the resin with 25% piperidine in DMF then cleaved the FMOC group. Following washing with DMF a dienoic acid was coupled to the resin-bound linkers using PyBOP, HOBt and Hunigs' base in DMF until the result of a Kaiser test was negative. […]

pIC50, pKi: −log10 of the molar value.

T6 sequence (P06868 104-583 limits assumed): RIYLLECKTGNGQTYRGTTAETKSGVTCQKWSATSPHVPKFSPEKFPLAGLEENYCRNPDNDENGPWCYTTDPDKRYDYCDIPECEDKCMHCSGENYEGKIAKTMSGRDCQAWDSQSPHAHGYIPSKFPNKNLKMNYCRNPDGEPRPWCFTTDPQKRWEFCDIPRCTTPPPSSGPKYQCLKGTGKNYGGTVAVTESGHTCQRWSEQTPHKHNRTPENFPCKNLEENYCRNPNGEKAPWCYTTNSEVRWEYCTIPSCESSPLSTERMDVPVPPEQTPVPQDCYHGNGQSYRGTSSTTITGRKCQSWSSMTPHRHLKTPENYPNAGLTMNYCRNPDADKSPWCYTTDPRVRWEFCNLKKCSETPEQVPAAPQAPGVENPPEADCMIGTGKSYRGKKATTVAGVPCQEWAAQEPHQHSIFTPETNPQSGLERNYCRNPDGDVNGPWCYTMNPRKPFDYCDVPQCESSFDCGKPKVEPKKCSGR
T6 sequence (P06868 584-812 limits assumed): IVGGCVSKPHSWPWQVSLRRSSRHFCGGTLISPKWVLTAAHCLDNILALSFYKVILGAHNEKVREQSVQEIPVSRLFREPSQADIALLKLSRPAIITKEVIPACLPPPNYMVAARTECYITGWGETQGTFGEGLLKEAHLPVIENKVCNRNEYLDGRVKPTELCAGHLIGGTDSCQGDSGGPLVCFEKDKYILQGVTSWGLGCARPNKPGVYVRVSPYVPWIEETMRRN
Chain of Activated Protein C (aPC) (P04070 43-197 limits assumed): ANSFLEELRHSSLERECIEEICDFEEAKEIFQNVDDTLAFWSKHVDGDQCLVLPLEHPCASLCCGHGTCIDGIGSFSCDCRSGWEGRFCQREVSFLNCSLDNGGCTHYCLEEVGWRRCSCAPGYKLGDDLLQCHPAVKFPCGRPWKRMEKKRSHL
Chain of Activated Protein C (aPC) (P04070 212-461 limits assumed): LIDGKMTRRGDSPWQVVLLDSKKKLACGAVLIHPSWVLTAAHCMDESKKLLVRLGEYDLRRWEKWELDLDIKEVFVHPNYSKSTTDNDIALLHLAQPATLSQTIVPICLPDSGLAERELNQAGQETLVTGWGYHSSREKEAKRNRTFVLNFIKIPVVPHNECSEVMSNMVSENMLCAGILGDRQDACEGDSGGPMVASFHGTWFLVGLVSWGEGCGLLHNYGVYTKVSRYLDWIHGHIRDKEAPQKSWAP
T2 sequence (P13726 33-295 partner, one chain of several): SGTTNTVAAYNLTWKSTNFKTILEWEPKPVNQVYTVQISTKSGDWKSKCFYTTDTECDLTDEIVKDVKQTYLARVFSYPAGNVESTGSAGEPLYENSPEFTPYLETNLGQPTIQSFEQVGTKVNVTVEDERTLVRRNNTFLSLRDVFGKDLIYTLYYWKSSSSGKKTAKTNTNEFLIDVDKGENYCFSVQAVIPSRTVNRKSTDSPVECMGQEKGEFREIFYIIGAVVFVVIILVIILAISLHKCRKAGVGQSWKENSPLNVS
Chain of Tissue Plasminogen Activator (t-PA) (P00750 36-562): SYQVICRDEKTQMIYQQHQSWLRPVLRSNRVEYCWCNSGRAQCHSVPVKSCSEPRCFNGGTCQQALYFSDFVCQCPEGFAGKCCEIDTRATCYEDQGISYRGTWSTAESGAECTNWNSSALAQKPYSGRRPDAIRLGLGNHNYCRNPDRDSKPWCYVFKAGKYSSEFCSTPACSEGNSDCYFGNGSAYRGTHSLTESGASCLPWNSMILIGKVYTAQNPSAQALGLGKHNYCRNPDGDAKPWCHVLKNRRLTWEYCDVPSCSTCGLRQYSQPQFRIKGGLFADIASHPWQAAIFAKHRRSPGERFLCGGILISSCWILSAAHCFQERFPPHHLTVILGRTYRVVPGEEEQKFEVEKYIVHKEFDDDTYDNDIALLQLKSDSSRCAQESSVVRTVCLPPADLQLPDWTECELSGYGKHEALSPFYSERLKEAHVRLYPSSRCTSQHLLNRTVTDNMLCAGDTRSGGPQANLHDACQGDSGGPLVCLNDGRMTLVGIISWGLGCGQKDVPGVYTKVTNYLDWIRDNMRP
Chain of t-PA (P00750 36-562): as above
Chain of Factor XI (P03951 388-625 limits assumed): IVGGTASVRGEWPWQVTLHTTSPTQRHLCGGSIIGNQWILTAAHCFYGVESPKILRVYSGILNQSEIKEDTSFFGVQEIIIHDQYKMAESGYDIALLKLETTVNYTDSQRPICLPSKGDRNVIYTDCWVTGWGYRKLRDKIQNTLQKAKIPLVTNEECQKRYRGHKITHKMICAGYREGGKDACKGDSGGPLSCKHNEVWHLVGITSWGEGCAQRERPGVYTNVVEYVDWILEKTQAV
Chain of Factor XI (P03951 19-387 limits assumed): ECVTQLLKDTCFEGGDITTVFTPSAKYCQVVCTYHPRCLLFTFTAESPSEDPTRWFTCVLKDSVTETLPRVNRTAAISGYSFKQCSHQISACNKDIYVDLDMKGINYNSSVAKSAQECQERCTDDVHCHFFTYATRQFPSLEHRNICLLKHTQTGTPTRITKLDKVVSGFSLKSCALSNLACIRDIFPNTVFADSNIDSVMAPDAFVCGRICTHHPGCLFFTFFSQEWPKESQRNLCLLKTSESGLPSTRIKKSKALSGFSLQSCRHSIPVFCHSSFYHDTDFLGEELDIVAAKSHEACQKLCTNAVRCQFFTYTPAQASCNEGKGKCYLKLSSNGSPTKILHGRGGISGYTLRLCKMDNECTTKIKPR
T4 sequence (P00760 24-246): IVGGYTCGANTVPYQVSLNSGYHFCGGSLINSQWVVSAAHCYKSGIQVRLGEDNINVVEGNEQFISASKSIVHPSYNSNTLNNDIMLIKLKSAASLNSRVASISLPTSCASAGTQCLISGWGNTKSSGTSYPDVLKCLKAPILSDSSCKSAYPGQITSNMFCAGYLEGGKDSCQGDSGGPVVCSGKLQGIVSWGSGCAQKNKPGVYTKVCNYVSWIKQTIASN

In the case of `N=C(N)NCCC[C@H](NC(=O)[C@@H]1CCN2CC[C@@](N)(Cc3ccccc3)C(=O)N12)C(=O)CCl` [Structure (13b)], the pIC50 on thrombin [1] was 8.92; on FVIIa and TF complex, 6.85; on bovine factor Xa, 6.41; in assay [2] it was 6.20; in [3], 6.28; against bovine trypsin, 6.80. Besides, the pIC50 at urokinase [4] was 6.03; against Plasmin [5], 6.01.
For `N=C(N)NCCCC(NC(=O)C1CCN2CCC(N)(Cc3ccccc3)C(=O)N12)C(=O)c1nc2ccccc2s1` (centres unmarked) [Structure (20b)], the Ki was determined as 2.7e-07 M on factor VII; 4.95e-07 M on t-PA; 2.7e-08 M at Factor XI; 600 nM on urokinase [6]; 4.15e-07 M on Plasmin [7].
For `CC/C=C\CCC1C=CC(C(=O)NC(CCCCN)C(=O)C(=O)NCCc2ccc(C(N)=O)cc2)n2c(=O)n(CC(c3ccccc3)c3ccccc3)c(=O)n21` (centres unmarked) [compound 106], the pKi on thrombin [8] was more than 8.00.

The record behind these values is patent EP1053246B1, “BETA-SHEET MIMETICS AND METHODS RELATING TO THE USE THEREOF” (MOLECUMETICS, LTD., priority 1998, dated 1999).
